# Values of other authors as cited in patent US20260057961A1, “CHROMOSOME 9P24 LOSS AND GAIN PREDICTS RESISTANCE AND BENEFIT OF IMMUNE CHECKPOINT INHIBITORS” (THE REGENTS OF THE UNIVERSITY OF CALIFORNIA, priority 2022, published 2026).
# Legend:
# HNSC [1] = conditions: recurrent/metastatic setting after platinum failure
# HNSC [2] = system: HNSC
Substance,overall survival compared to chemotherapy or cetuximab (HNSC [1]),"overall survival compared to chemotherapy (HNSC [2]; pembrolizumab alone, approximately 20% of patients, with no PD-L1 expression)","survival versus platinum/5FU/cetuximab (HNSC [2]; pembrolizumab monotherapy, patients whose tumors expressed PD-L1 protein by immunohistochemistry)"
nivolumab,improved overall survival,,
pembrolizumab,improved overall survival,worse,improved survival
